Measurements published in patent US9868744B2, “Heteroaromatic compounds and their use as dopamine D1 ligands” (PFIZER INC., priority 2014, dated 2018).
Where two headings read alike, the source gives them in different places.

Target: Human D1 Receptor (Homo sapiens (Human), UniProt P21728)
Assay: Human D1 receptor binding assay ([^3H]-SCH23390 competition)
Conditions: read-out: Human D1 Receptor Binding, Ki (nM), Geometric mean of 2-4 determinations (unless otherwise indicated)
Procedure: D1 binding assays were performed using over-expressing LTK human cell lines. […] These ligand and tissue concentrations were used in time course studies to determine linearity and equilibrium conditions for binding. […] The pellet was resuspended in assay buffer [50 mM Tris (pH 7.4@ RT) containing 4 mM MgSO4 and 0.5 mM EDTA]. […] Non-specific binding was determined by radioligand binding in the presence of a saturating concentration of (+)-Butaclamol (10 μM), a D1 antagonist. After a 30 minute incubation period at 37° C., assay samples were rapidly filtered through Unifilter-96 GF/B PEI-coated filter plates and rinsed with 50 mM Tris buffer (pH 7.4 at 4° C.). […] Ki values were calculated according to the Cheng-Prusoff equation: […]

Human D1 Receptor, sequence (P21728 whole entry): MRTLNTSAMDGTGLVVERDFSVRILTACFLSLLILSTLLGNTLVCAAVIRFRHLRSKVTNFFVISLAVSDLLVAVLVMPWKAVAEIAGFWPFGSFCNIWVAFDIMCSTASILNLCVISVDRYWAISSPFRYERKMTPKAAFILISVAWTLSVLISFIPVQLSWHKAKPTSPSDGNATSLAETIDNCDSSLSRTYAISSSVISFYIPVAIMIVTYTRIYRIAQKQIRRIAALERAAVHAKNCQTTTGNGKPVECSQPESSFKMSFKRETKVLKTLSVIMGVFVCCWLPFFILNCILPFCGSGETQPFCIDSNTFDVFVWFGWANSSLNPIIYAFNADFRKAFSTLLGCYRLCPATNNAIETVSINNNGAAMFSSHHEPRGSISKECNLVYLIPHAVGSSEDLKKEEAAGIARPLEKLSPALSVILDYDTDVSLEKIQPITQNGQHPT

Row | SMILES | Ki [nM] | Ki (competition with 0.5 nM [^3H]-SCH23390, over-expressing LTK human cell lines, 30 min at 37° C., values marked ^a are from a single determination) [nM]
1 | Cc1cc(Oc2ncnc3occc23)ccc1-c1c(C)ncnc1C [Example 1, 4-[4-(4,6-dimethylpyrimidin-5-yl)-3-methylphenoxy]furo[2,3-d]pyrimidine] | 166 | 
2 | Cc1cc(Oc2nccc3[nH]cnc23)ccc1-c1c(C)ncc2nccn12 [Example 2, 4-[3-methyl-4-(6-methylimidazo[1,2-a]pyrazin-5-yl)phenoxy]-1H-imidazo[4,5-c]pyridine] | 374 | 
3 | Cc1cc(Oc2nccc3sncc23)ccc1-c1c(C)n[nH]c(=O)c1C [Example 10, 4,6-dimethyl-5-[2-methyl-4-([1,2]thiazolo[4,5-c]pyridin-4-yloxy)phenyl]pyridazin-3(2H)-one] |  | 32.7
